The record followed here is patent US8623859B2, “Bradykinin B1 antagonists” (Evotec AG, priority 2008, dated 2014).

Where a name gives a salt, the structure may show the parent alone. Where only a bound is given, the exact number is not on record here.

The target in the assay is T1, human B1 (Homo sapiens, UniProt P46663).
T1 construct: host or cells: CHO-K1
T1 sequence (P46663 1-353): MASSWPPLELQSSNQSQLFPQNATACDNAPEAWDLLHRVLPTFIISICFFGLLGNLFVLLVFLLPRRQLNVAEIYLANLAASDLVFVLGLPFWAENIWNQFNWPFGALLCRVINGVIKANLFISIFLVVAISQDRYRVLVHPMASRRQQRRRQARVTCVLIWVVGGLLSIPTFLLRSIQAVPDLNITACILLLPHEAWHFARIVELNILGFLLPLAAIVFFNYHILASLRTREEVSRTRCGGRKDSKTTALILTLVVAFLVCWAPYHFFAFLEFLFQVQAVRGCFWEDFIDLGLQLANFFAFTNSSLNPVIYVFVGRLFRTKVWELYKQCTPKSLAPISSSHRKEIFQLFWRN
Nature of the assay: Calcium flux assay for Bradykinin B1 antagonist, CHO-K1 cell line expressing human B1. The settings on record: CHO-K1 cells expressing human B1, agonist Lys-(Des-Arg)-Bradykinin, read-out: Potency (IC50 value against human B1). In kind it is cell-based. The essentials: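 Inhibition of B1 agonist-evoked intracellular Ca2+ rise was followed by continuous fluorescence at 538 nm, with integrated, background-normalized signals plotted versus log compound concentration. Test compounds (eight 10-fold dilutions, triplicate, 1% DMSO final) were added 30 min at 25° C beforehand to Fluo-4AM-loaded human B1 CHO-K1 cells in pH 7.4 assay buffer.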
(Calcium assays in cells follow changes in intracellular calcium, usually with a dye or a luminescent sensor.)

A word on the IC50: it is the concentration that gives 50% inhibition. Turning to `COc1cc(C)c(S(=O)(=O)N(C)Cc2cc(C(=O)N(C)Cc3ccc(CN4CCC(NC(C)=O)C4)cc3)co2)c(C)c1` (stereo not drawn) [Ex 132, N-(4-{[3-(Acetylamino)pyrrolidin-1-yl]methyl}benzyl)-5-({[(4-methoxy-2,6-dimethylphenyl)sulfonyl](methyl)amino}methyl)-N-methylfuran-3-carboxamide], the IC50 lay within 100 to 1000 nM.
In the case of `COc1cc(C)c(S(=O)(=O)N(C)Cc2cc(C(=O)N(C)Cc3ccc(CN4CC(OC)C4)cc3)co2)c(C)c1` [Ex 133, N-{4-[(3-Methoxyazetidin-1-yl)methyl]benzyl}-5-({[(4-methoxy-2,6-dimethylphenyl)sulfonyl](methyl)amino}methyl)-N-methylfuran-3-carboxamide], the IC50 lay in the range of 100 to 1000 nM.
Turning to `COc1cc(C)c(S(=O)(=O)N(C)Cc2cc(C(=O)N(C)Cc3ccc(CN4CCCC(O)C4)cc3)co2)c(C)c1` (stereo not drawn) [Ex 134, N-{4-[(3-Hydroxypiperidin-1-yl)methyl]benzyl}-5-({[(4-methoxy-2,6-dimethylphenyl)sulfonyl](methyl)amino}methyl)-N-methylfuran-3-carboxamide], the IC50 was less than 10 nM.
Next, `COc1cc(C)c(S(=O)(=O)N(C)Cc2cc(C(=O)N(C)Cc3ccc(CN4CCC(O)C4)cc3)co2)c(C)c1` (stereo not drawn) [Ex 135, N-{4-[(3-Hydroxypyrrolidin-1-yl)methyl]benzyl}-5-({[(4-methoxy-2,6-dimethylphenyl)sulfonyl](methyl)amino}methyl)-N-methylfuran-3-carboxamide]: 10 to 100 nM; `COc1cc(C)c(S(=O)(=O)N(C)Cc2cc(C(=O)N(C)Cc3ccc(CN4CCC(N(C)C)C4)cc3)co2)c(C)c1` (stereo not drawn) [Ex 136, N-(4-{[3-(Dimethylamino)pyrrolidin-1-yl]methyl}benzyl)-5-({[(4-methoxy-2,6-dimethylphenyl)sulfonyl](methyl)amino}methyl)-N-methylfuran-3-carboxamide]: 10 to 100 nM.
In the case of `COc1cc(C)c(S(=O)(=O)N(C)Cc2cc(C(=O)N(C)Cc3nnc(CN4CCCC4)s3)co2)c(C)c1` [Ex 137, 5-({[(4-Methoxy-2,6-dimethylphenyl)sulfonyl](methyl)amino}methyl)-N-methyl-N-{[5-(pyrrolidin-1-ylmethyl)-1,3,4-thiadiazol-2-yl]methyl}furan-3-carboxamide], the IC50 is 100 to 1000 nM.
Next, `COc1cc(C)c(S(=O)(=O)N(C)Cc2cc(C(=O)N(C)Cc3nc(CN4CCCC4)cs3)co2)c(C)c1` [Ex 138, 5-({[(4-Methoxy-2,6-dimethylphenyl)sulfonyl](methyl)amino}methyl)-N-methyl-N-{[4-(pyrrolidin-1-ylmethyl)-1,3-thiazol-2-yl]methyl}furan-3-carboxamide]: less than 10 nM; `COc1cc(C)c(S(=O)(=O)N(Cc2cc(C(=O)N(C)Cc3ccc(CN4CCC(O)CC4)cc3)co2)C2CC2)c(C)c1` [Ex 139, 5-({Cyclopropyl[(4-methoxy-2,6-dimethylphenyl)sulfonyl]amino}methyl)-N-{4-[(4-hydroxypiperidin-1-yl)methyl]benzyl}-N-methylfuran-3-carboxamide]: 10 to 100 nM.
The same measure for `COc1cc(C)c(S(=O)(=O)N(Cc2cc(C(=O)N(C)Cc3ccc(CN4CCC(N(C)C)C4)cc3)co2)C2CC2)c(C)c1` (stereo not drawn) [Ex 140, 5-({Cyclopropyl[(4-methoxy-2,6-dimethylphenyl)sulfonyl]amino}methyl)-N-(4-{[3-(dimethylamino)pyrrolidin-1-yl]methyl}benzyl)-N-methylfuran-3-carboxamide]: 10 to 100 nM.
As to `COc1cc(C)c(S(=O)(=O)N(Cc2cc(C(=O)N(C)Cc3ccc(CN4CCC(O)C4)cc3)co2)C2CC2)c(C)c1` (stereo not drawn) [Ex 141, 5-({Cyclopropyl[(4-methoxy-2,6-dimethylphenyl)sulfonyl]amino}methyl)-N-{4-[(3-hydroxypyrrolidin-1-yl)methyl]benzyl}-N-methylfuran-3-carboxamide], the IC50 lay in the range of 10 to 100 nM.
Next, `COc1cc(C)c(S(=O)(=O)N(Cc2cc(C(=O)N(C)Cc3ccc(CN4CCCC(O)C4)cc3)co2)C2CC2)c(C)c1` (stereo not drawn) [Ex 142, 5-({Cyclopropyl[(4-methoxy-2,6-dimethylphenyl)sulfonyl]amino}methyl)-N-{4-[(3-hydroxypiperidin-1-yl)methyl]benzyl}-N-methylfuran-3-carboxamide]: less than 10 nM.
In the case of `COc1cc(C)c(S(=O)(=O)N(Cc2cc(C(=O)N(C)Cc3ccc(CN4CCC(OC)CC4)cc3)co2)C2CC2)c(C)c1` [Ex 143, 5-({Cyclopropyl[(4-methoxy-2,6-dimethylphenyl)sulfonyl]amino}methyl)-N-{4-[(4-methoxypiperidin-1-yl)methyl]benzyl}-N-methylfuran-3-carboxamide], the IC50 lay within 10 to 100 nM.
For the compound `COc1cc(C)c(S(=O)(=O)N(Cc2cc(C(=O)N(C)Cc3ccc(CN4CCCC(OC)C4)cc3)co2)C2CC2)c(C)c1` (stereo not drawn) [Ex 144, 5-({Cyclopropyl[(4-methoxy-2,6-dimethylphenyl)sulfonyl]amino}methyl)-N-{4-[(3-methoxypiperidin-1-yl)methyl]benzyl}-N-methylfuran-3-carboxamide], the IC50 was in the range of 100 to 1000 nM.
Next, `COc1cc(C)c(S(=O)(=O)N(Cc2cc(C(=O)N(C)Cc3ccc(CN4CCC(OC)C4)cc3)co2)C2CC2)c(C)c1` (stereo not drawn) [Ex 145, 5-({Cyclopropyl[(4-methoxy-2,6-dimethylphenyl)sulfonyl]amino}methyl)-N-{4-[(3-methoxypyrrolidin-1-yl)methyl]benzyl}-N-methylfuran-3-carboxamide]: 10 to 100 nM; `COc1cc(C)c(S(=O)(=O)N(Cc2cc(C(=O)N(C)Cc3ccc(CN4CCC(NC(C)=O)C4)cc3)co2)C2CC2)c(C)c1` (stereo not drawn) [Ex 146, N-(4-{[3-(Acetylamino)pyrrolidin-1-yl]methyl}benzyl)-5-({cyclopropyl[(4-methoxy-2,6-dimethylphenyl)sulfonyl]amino}methyl)-N-methylfuran-3-carboxamide]: 100 to 1000 nM.
Next, `COc1cc(C)c(S(=O)(=O)N(Cc2cc(C(=O)N(C)Cc3ccc(CN4CCC(C(=O)N(C)C)C4)cc3)co2)C2CC2)c(C)c1` (stereo not drawn) [Ex 147, 1-(4-{[{[5-({Cyclopropyl[(4-methoxy-2,6-dimethylphenyl)sulfonyl]amino}methyl)furan-3-yl]carbonyl}(methyl)amino]methyl}benzyl)-N,N-dimethylpyrrolidine-3-carboxamide]: 10 to 100 nM; `COc1cc(C)c(S(=O)(=O)N(Cc2cc(C(=O)N(C)Cc3ccc(CN4CC(O)C4)cc3)co2)C2CC2)c(C)c1` [Ex 148, 5-({Cyclopropyl[(4-methoxy-2,6-dimethylphenyl)sulfonyl]amino}methyl)-N-{4-[(3-hydroxyazetidin-1-yl)methyl]benzyl}-N-methylfuran-3-carboxamide]: 10 to 100 nM; `COc1cc(C)c(S(=O)(=O)N(Cc2cc(C(=O)N(C)Cc3ccc(CN4CC(OC)C4)cc3)co2)C2CC2)c(C)c1` [Ex 149, 5-({Cyclopropyl[(4-methoxy-2,6-dimethylphenyl)sulfonyl]amino}methyl)-N-{4-[(3-methoxyazetidin-1-yl)methyl]benzyl}-N-methylfuran-3-carboxamide]: 100 to 1000 nM.
The same measure for `CCN(Cc1ccc(CN2CCCC2)cc1)C(=O)c1coc(CN(C)S(=O)(=O)c2c(C)cc(OC)cc2C)c1` [Ex 150, N-Ethyl-5-({[(4-methoxy-2,6-dimethylphenyl)sulfonyl](methyl)amino}methyl)-N-[4-(pyrrolidin-1-ylmethyl)benzyl]furan-3-carboxamide trifluoroacetate]: 10 to 100 nM; for `COc1cc(C)c(S(=O)(=O)N(C)Cc2cc(C(=O)NCc3cc(CN4CCCC4)ccc3F)co2)c(C)c1` [Ex 151, N-[2-Fluoro-5-(pyrrolidin-1-ylmethyl)benzyl]-5-({[(4-methoxy-2,6-dimethylphenyl)sulfonyl](methyl)amino}methyl)furan-3-carboxamide trifluoroacetate]: 100 to 1000 nM.
With `COc1cc(C)c(S(=O)(=O)N(C)Cc2cc(C(=O)NCc3ccc(CN4CCCC4)c(F)c3)co2)c(C)c1` [Ex 152, N-[3-Fluoro-4-(pyrrolidin-1-ylmethyl)benzyl]-5-({[(4-methoxy-2,6-dimethylphenyl)sulfonyl](methyl)amino}methyl)furan-3-carboxamide trifluoroacetate], the IC50 was in the range of 100 to 1000 nM.
Next, `COc1cc(C)c(S(=O)(=O)N(Cc2cc(C(=O)NCc3cc(CN4CCCC4)ccc3F)co2)C2CC2)c(C)c1` [Ex 153, 5-({Cyclopropyl[(4-methoxy-2,6-dimethylphenyl)sulfonyl]amino}methyl)-N-[2-fluoro-5-(pyrrolidin-1-ylmethyl)benzyl]furan-3-carboxamide trifluoroacetate]: 100 to 1000 nM; `COc1cc(C)c(S(=O)(=O)N(Cc2cc(C(=O)NCc3ccc(CN4CCCC4)c(F)c3)co2)C2CC2)c(C)c1` [Ex 154, 5-({Cyclopropyl[(4-methoxy-2,6-dimethylphenyl)sulfonyl]amino}methyl)-N-[3-fluoro-4-(pyrrolidin-1-ylmethyl)benzyl]furan-3-carboxamide trifluoroacetate]: 100 to 1000 nM; `COc1cc(C)c(S(=O)(=O)N(C)Cc2cc(C(=O)NCc3cc(F)cc(CN4CCCC4)c3)co2)c(C)c1` [Ex 155, N-[3-Fluoro-5-(pyrrolidin-1-ylmethyl)benzyl]-5-({[(4-methoxy-2,6-dimethylphenyl)sulfonyl](methyl)amino}methyl)furan-3-carboxamide trifluoroacetate]: 10 to 100 nM.
